Assay results published in patent US12578343B2, “Selective ACKR3 modulators and uses thereof” (Luxembourg Institute of Health (LIH), priority 2019, dated 2026).

Experiments:
DOR = target: T1, DOR (Homo sapiens, UniProt P41143); experiment: β-arrestin-1 recruitment to DOR (NanoBiT, U87 cells); format: cell-based; conditions: concentrations as high as 3 μM
T1 construct: expressed in transfected cells; host or cells: U87 cells, transient co-transfection of pNBe vectors
Protocol: (§1) In brief, 1.2×10^6 U87 cells were plated in 10 cm-culture dishes and 48 hours later co-transfected with pNBe vectors encoding GPCRs C-terminally tagged to SmBiT and human β-arrestin-1 or -2 or mini G proteins (mG, engineered GTPase domains of Gα subunits,) N-terminally fused to LgBiT. 48 hours post-transfection cells were harvested, incubated 25 minutes at 37° C. with Nano-Glo Live Cell substrate diluted 200-fold and distributed into white 96-well plates (5×10^4 cells per well). Ligand-induced, β-arrestin and mG recruitment to GPCRs was evaluated with a Mithras LB940 luminometer (Berthold Technologies) for 20 minutes. For concentration-response curves, the signal recorded with a saturating concentration of full agonist for each receptor was set as 100%.

ACKR3 [1] = target: T2, ACKR3 (Homo sapiens, UniProt P25106); experiment: Uptake of fluorescently labelled opioid peptides by ACKR3-expressing U87 cells, imaging flow cytometry; format: cell-based; parameters: expressed in transfected cells; for the receptor comparison in the uptake assay, transient pcDNA3.1); conditions: saturating concentration of LIH383 (3 μM)
Description: Visualization of Fluorescently Labelled Opioid Peptides Uptake by Imagestream

MOR = target: T3, MOR (Homo sapiens, UniProt P35372); format: cell-based; conditions: concentrations as high as 3 μM
T3 construct: expressed in transfected cells; host or cells: U87 cells, transient co-transfection of pNBe vectors
Protocol: as §1

ACKR3 [2] = target: T2, ACKR3; experiment: ACKR3-mediated depletion of extracellular dynorphin A monitored by its ability to activate KOR (U87-ACKR3 cells); format: cell-based; parameters: expressed in transfected cells; for the receptor comparison in the uptake assay, transient pcDNA3.1); conditions: pre-treatment of ACKR3-expressing cells, saturating concentration
Protocol: as §1

NOP = target: T4, NOP (Homo sapiens, UniProt P41146); experiment: β-arrestin-1 recruitment to NOP (NanoBiT, U87 cells); format: cell-based; conditions: concentrations as high as 3 μM
T4 construct: expressed in transfected cells; host or cells: U87 cells, transient co-transfection of pNBe vectors
Protocol: as §1

smNPCs = experiment: Uptake of labelled dynorphin A (1-13) by smNPCs, imaging flow cytometry; format: cell-based, human; conditions: 3 μM, 15 minutes pre-treatment
Protocol: U87 cells derived from human brain glioblastoma were obtained through the NIH AIDS Reagent Program from Dr. Deng and Dr. Littman. U87 stably expressing ACKR3 and CXCR4 were generated as previously described in Szpakowska, M. et al. Different contributions of chemokine N-terminal features attest to a different ligand binding mode and a bias towards activation of ACKR3/CXCR7 compared with CXCR4 and CXCR3. Br J Pharmacol 175, 1419-1438 (2018). U87 cells were grown in Dulbecco's modified Eagle medium (DMEM) supplemented with 15% foetal bovine serum and penicillin/streptomycin (100 Units/ml and 100 μg/ml). U87-ACKR3 and U87-CXCR4 were maintained under puromycin (1 μg/ml) selective pressure. smNPCs (small molecule neural precursor cells) derived from a healthy donor (C1-1) whose informed consent was obtained, were grown on Geltrex™-coated surface in N2B27 medium supplemented with 0.5 μM Purmorphamine, 3 μM CHIR 99021 and 150 μM ascorbic acid. N2B27 medium consisted of DMEM/F12 and NeuroBasal medium 50:50 with 0.5% N2 supplement, 1% B27 supplement lacking vitamin A, 1% GlutaMAX and 1% penicilin/streptomycin. Medium was renewed every other day.
Cells were distributed into 96-well plates (2×10^5 cells/well in Opti-MEM for U87 and U87-ACKR3 and 3×10^5 cells/well in N2B27 medium for smNPCs). […] For comparison of labelled opioid peptide-uptake by ACKR3 or classical opioid receptors, 1.2×10^6 U87 cells were seeded in 10-cm dishes and transfected 48 hours later with 4 μg pcDNA3.1 plasmid encoding ACKR3 or KOR, MOR or NOP. 48 hours post transfection, cells were harvested and treated as described above. Dead cells were excluded using Zombie NIR or Zombie Green viability dye (BioLegend) for FAM-labelled peptides and Cy5-labelled peptides, respectively. Images of 1×10^4 in-focus, living single cells were acquired with an ImageStream MKII imaging flow cytometer (Amnis) using 40× magnification (60× magnification for smNPCs). Samples were analysed using Ideas6.2 software. The number of spots per cell was determined using a mask-based software wizard.

T2 sequence (P25106 whole entry): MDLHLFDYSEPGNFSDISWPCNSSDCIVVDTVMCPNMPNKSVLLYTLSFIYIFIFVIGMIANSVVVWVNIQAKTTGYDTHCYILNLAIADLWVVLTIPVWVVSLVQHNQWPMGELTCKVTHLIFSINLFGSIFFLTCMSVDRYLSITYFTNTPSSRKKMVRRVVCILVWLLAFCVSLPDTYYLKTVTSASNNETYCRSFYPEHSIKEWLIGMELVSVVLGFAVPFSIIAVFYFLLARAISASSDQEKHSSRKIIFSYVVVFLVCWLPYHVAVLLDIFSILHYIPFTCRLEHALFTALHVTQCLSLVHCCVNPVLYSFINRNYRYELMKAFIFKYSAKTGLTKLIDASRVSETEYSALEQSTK
T1 sequence (P41143 whole entry): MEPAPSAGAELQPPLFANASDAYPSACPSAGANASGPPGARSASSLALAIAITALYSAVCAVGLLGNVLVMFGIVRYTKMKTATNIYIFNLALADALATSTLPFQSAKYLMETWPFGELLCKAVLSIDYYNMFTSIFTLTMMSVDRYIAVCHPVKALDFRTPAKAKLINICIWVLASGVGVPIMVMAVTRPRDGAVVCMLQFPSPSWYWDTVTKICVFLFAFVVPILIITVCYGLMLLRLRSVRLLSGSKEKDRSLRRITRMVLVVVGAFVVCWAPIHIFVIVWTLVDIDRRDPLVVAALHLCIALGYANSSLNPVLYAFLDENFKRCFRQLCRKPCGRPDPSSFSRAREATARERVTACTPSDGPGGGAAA
T4 sequence (P41146 whole entry): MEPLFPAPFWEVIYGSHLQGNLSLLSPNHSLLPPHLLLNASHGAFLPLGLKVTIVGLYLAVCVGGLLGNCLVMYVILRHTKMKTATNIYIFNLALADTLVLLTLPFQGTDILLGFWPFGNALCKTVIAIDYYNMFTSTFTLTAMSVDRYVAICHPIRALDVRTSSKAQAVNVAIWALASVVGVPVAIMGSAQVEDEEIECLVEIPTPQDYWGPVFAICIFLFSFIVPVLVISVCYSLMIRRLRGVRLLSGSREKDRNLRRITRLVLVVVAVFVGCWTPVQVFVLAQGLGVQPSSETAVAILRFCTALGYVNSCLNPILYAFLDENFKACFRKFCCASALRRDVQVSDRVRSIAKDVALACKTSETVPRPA
T3 sequence (P35372 whole entry): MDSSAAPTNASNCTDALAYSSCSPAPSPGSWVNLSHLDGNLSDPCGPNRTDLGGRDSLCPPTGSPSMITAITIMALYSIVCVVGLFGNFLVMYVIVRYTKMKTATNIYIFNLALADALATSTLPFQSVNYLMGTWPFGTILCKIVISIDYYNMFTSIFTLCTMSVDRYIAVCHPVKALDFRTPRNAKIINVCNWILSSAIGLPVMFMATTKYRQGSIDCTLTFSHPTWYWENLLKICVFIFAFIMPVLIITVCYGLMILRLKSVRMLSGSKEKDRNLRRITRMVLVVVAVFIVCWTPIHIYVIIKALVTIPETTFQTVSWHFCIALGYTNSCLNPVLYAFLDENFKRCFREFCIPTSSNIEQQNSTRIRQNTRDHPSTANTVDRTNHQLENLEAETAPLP

CSCC[C@H](NC(=O)[C@H](Cc1ccccc1)NC(=O)CNC(=O)CNC(=O)[C@@H](N)Cc1ccccc1)C(=O)N[C@@H](CCCNC(=N)N)C(=O)N[C@@H](CCCNC(=N)N)C(=O)N[C@@H](CCCCN)C(N)=O [LIH383]
activation or inhibition of DOR (DOR): no activation or inhibition | dynorphin A-FAM uptake by U87-ACKR3 cells compared to U87-ACKR3 cells pre-incubated with LIH383 (ACKR3 [1]): notably higher number of distinguishable vesicle-like structures and mean fluorescent intensity | activation or inhibition of MOR (MOR): no activation or inhibition | reversal of the ACKR3-mediated impairment of dynorphin A potency to activate KOR by pre-treatment (ACKR3 [2]): reversed | activation or inhibition of NOP (NOP): no activation or inhibition | effect of pretreatment on uptake of labelled dynorphin A (1-13) by smNPCs (smNPCs): significantly reduced
